Assay results reported in ChEMBL document CHEMBL1151401, “Plant anticancer agents. XII. Isolation and structure elucidation of new cytotoxic quinones from Tabebuia cassinoides” (1982).
Converted amounts (≈) assume the structure as drawn. The source made the active and inactive calls. No cut-off for these calls is given here.

Columns and labels:
KB = assay: Cytotoxicity against human KB cells; type: functional; conditions: read-out: ED50 (the source's name)
P388 = assay: In vivo cytotoxicity against mouse P388 cells at upto 35 mg/kg; type: functional, organism-based; design: dose 35 mg/kg

SMILES: CC(O)c1cc2c(o1)C(=O)c1ccccc1C2=O (stereo not given)
- EC50 (KB): 2 µg/mL (≈ 8.26 µM)

SMILES: CC(O)c1cc2c(o1)C(=O)c1c(O)cccc1C2=O (stereo not given)
- EC50 (KB): 1 µg/mL (≈ 3.87 µM)

SMILES: CC(C)=CCC1=C(O)C(=O)c2ccccc2C1=O [LAPACHOL]
- EC50 (KB): 4.4 µg/mL (≈ 18.2 µM)

SMILES: CC(=O)c1cc2c(o1)C(=O)c1ccccc1C2=O [NAPABUCASIN]
- EC50 (KB): 1 µg/mL (≈ 4.16 µM)
- Activity (P388): inactive
